Source: publication PMC10687288, “Chalcones: The flavonoid derivatives synthesis, characterization, their antioxidant and in vitro/in vivo antidiabetic potentials” (Heliyon, 2023)

Target: α-glucosidase
Assay: p-nitrophenyl-α-D-glucopyranoside hydrolysis assay, absorbance […] nm
Assay type: biochemical

Glucosidase IC50 [µg/mL]	SMILES
63.04 ± 1.17	O=C(/C=C/c1ccc(Cl)cc1)c1ccc(Br)cc1 [JA3, (E)-1-(4-bromophenyl)-3-(4-chlorophenyl) prop-2-ene-1one]
97.24 ± 1.48	O=C(/C=C/c1cccc(Cl)c1)c1ccc(Br)cc1 [JA2, (E)-1-(4-bromophenyl)-3-(3-chlorophenyl) prop-2-ene-1one]
85.11 ± 1.29	O=C(/C=C/c1ccccc1Cl)c1ccc(Br)cc1 [JA1, (E)-1-(4-bromophenyl)-3-(2-chlorophenyl) prop-2-ene-1one]
